Biological target: T1, MAGL (recombinant wild-type) (Homo sapiens, UniProt Q99685)
T1 sequence (Q99685 1-303): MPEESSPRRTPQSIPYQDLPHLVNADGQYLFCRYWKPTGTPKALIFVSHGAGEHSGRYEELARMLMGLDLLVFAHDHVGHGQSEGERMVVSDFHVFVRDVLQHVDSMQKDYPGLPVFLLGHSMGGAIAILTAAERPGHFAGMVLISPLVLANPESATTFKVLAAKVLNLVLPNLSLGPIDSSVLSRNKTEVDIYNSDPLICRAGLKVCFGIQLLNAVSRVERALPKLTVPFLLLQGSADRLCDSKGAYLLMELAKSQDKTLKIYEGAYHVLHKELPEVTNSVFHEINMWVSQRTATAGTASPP
Experiment: 4-NPA assay: MAGL inhibitory activity by hydrolysis of 4-nitrophenylacetate, absorbance at 405 nm
Format: biochemical
Conditions: 4-NPA assay (values without footnote [b])
Method in brief: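 Final assay: 1 nM MAGL and 300 μM 4-nitrophenylacetate in 50 mM Tris, 1 mM EDTA, at RT. Compounds (25 μM–1.7 nM, 3-fold steps) were preincubated 15 min with enzyme. A405 was read 5 min after substrate addition and again after 80 min; activity was taken as the difference between reads.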

For `Cc1ccc2oc(N3CCN(C(=O)c4cnc(N5CCC6(C5)CC6(F)F)c(Cl)c4)CC3)nc2n1` (stereo not drawn) [Example 227, (5-chloro-6-(1,1-difluoro-5-azaspiro[2.4]heptan-5-yl)pyridin-3-yl)(4-(5-methyloxazolo[4,5-b]pyridin-2-yl)piperazin-1-yl)methanone], the IC50 was 62 nM.

With `Cc1ccc2oc(N3CCN(C(=O)c4cnc(N5CCC6(C5)CC6(F)F)c(F)c4)CC3)nc2n1` (stereo not drawn) [Example 228, (6-(1,1-difluoro-5-azaspiro[2.4]heptan-5-yl)-5-fluoropyridin-3-yl)(4-(5-methyloxazolo[4,5-b]pyridin-2-yl)piperazin-1-yl)methanone] the IC50 was 152 nM.

Work on `CC(OC1CN(c2ncc(C(=O)N3CCN(c4nc5nc(Cl)ccc5o4)CC3)cc2F)C1)C(F)(F)F` (stereo not drawn) [Example 229, (4-(5-chlorooxazolo[4,5-b]pyridin-2-yl)piperazin-1-yl)(5-fluoro-6-(3-((1,1,1-trifluoropropan-2-yl)oxy)azetidin-1-yl)pyridin-3-yl)methanone] yielded an IC50 of 35 nM.

`O=C(c1cnc(N2CCC3(C2)CC3(F)F)c(F)c1)N1CCN(c2nc3nc(Cl)ccc3o2)CC1` (stereo not drawn) [Example 230, (4-(5-chlorooxazolo[4,5-b]pyridin-2-yl)piperazin-1-yl)(6-(1,1-difluoro-5-azaspiro[2.4]heptan-5-yl)-5-fluoropyridin-3-yl)methanone] gave an IC50 of 56 nM.

For `CC(C)(C)Cc1nc(-c2ccc(C(=O)N3CCN(c4nc5nc(C#N)ccc5o4)CC3)cc2)no1` [Example 260, 2-(4-(4-(5-neopentyl-1,2,4-oxadiazol-3-yl)benzoyl)piperazin-1-yl)oxazolo[4,5-b]pyridine-5-carbonitrile], the IC50 was 301 nM.

`CC(C)(C)Cc1nc(-c2ccc(C(=O)N3CCN(c4nc5nc(C(F)(F)F)ccc5o4)CC3)cc2)no1` [Example 261, (4-(5-neopentyl-1,2,4-oxadiazol-3-yl)phenyl)(4-(5-(trifluoromethyl)oxazolo[4,5-b]pyridin-2-yl)piperazin-1-yl)methanone] showed an IC50 of 40 nM.

`CC(F)(F)Cc1nc(-c2ccc(C(=O)N3CCN(c4nc5nc(Cl)ccc5o4)CC3)cc2)no1` [Example 262, [4-(5-chlorooxazolo[4,5-b]pyridin-2-yl)piperazin-1-yl]-[4-[5-(2,2-difluoropropyl)-1,2,4-oxadiazol-3-yl]phenyl]methanone] was tested, and the IC50 was 65 nM.

In the case of `CCCCc1nc2ccc(C(=O)N3CCN(c4nc5nc(C)ccc5o4)CC3)cc2o1` [Example 263, (2-butyl-1,3-benzoxazol-6-yl)-[4-(5-methyloxazolo[4,5-b]pyridin-2-yl)piperazin-1-yl]methanone], the IC50 is reported as 181 nM.

`CC(C)(F)Cc1nc(-c2ccc(C(=O)N3CCN(c4nc5nc(Cl)ccc5o4)CC3)cc2)no1` [Example 264, [4-(5-chlorooxazolo[4,5-b]pyridin-2-yl)piperazin-1-yl]-[4-[5-(2-fluoro-2-methyl-propyl)-1,2,4-oxadiazol-3-yl]phenyl]methanone] gave an IC50 of 59 nM.

`C=C(C)Cc1nc(-c2ccc(C(=O)N3CCN(c4nc5nc(Cl)ccc5o4)CC3)cc2)no1` [Example 265, [4-(5-chlorooxazolo[4,5-b]pyridin-2-yl)piperazin-1-yl]-[4-[5-(2-methylallyl)-1,2,4-oxadiazol-3-yl]phenyl]methanone] showed an IC50 of 30 nM.

`CC(C)=Cc1nc(-c2ccc(C(=O)N3CCN(c4nc5nc(Cl)ccc5o4)CC3)cc2)no1` [Example 266, [4-(5-chlorooxazolo[4,5-b]pyridin-2-yl)piperazin-1-yl]-[4-[5-(2-methylprop-1-enyl)-1,2,4-oxadiazol-3-yl]phenyl]methanone] showed an IC50 of 101 nM.

Work on `Cc1ccc2oc(N3CCN(C(=O)N4CC5(C4)CN(S(=O)(=O)c4cccc(Cl)c4)C5)CC3)nc2n1` [Example 305, [2-(3-chlorophenyl)sulfonyl-2,6-diazaspiro[3.3]heptan-6-yl]-[4-(5-methyloxazolo[4,5-b]pyridin-2-yl)piperazin-1-yl]methanone] yielded an IC50 of 2420 nM.

— US20220135591A1, “HETEROCYCLIC COMPOUNDS AS INHIBITORS OF MONOACYLGLYCEROL LIPASE (MAGL)” (Hoffmann-La Roche Inc., priority 2019, published 2022)
